Results taken from the Kinase Knowledgebase extract (Sharma et al. 2016).

These molecules were tested against PIK3CA (human) (UniProt P42336) (assay: Inhibition of PIK3CA Kinase Activity).
Chain of PIK3CA (human) (P42336 whole entry, looked up): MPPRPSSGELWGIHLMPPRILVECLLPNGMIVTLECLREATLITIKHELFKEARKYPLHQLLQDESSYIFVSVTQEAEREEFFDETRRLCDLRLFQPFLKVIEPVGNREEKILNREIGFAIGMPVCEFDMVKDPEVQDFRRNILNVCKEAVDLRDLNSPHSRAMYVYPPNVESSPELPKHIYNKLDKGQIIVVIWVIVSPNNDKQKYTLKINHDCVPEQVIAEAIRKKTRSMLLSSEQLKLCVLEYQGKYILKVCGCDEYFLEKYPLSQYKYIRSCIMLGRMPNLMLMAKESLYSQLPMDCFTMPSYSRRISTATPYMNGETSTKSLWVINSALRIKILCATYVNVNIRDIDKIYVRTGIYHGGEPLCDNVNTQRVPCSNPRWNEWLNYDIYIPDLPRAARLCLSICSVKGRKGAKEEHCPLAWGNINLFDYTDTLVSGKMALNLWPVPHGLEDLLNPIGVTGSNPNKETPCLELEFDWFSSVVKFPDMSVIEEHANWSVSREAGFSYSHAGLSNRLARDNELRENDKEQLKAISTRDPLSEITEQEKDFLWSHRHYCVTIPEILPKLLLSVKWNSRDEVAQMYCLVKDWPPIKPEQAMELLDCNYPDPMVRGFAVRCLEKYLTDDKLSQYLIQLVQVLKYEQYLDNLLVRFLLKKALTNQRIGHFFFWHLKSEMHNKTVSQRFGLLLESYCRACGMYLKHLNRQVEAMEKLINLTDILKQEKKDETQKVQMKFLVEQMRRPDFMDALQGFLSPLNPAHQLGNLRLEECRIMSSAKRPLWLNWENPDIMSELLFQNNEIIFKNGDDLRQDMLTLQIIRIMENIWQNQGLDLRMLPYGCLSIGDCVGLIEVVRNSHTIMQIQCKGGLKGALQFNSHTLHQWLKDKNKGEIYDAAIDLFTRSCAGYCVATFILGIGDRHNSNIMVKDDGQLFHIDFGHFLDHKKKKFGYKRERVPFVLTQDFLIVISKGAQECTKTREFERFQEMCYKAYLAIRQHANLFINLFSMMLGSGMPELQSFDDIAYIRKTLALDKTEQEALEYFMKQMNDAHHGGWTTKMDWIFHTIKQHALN
`Cc1nc2ncc(-c3ccc4c(c3)CN(c3ncnc(N5CCC5)c3C)CCO4)cc2[nH]1` showed an IC50 of 50 to 250 nM. In the case of `Cc1nc2ncc(-c3ccc4c(c3)CN(c3ncnc(C)c3Br)CCO4)cc2[nH]1`, the IC50 is reported as 50 to 250 nM. In the case of `CC1(C)CCc2ncnc(N3CCOc4ccc(-c5cnc(N)c(S(=O)(=O)N6C[C@@H]7C[C@H]6CN7)c5)cc4C3)c2C1`, the IC50 is reported as 10 to 50 nM. `CC1(C)CCc2ncnc(N3CCOc4ccc(-c5cnc(N)c(S(=O)(=O)NCC6CCNCC6)c5)cc4C3)c2C1` showed an IC50 of 10 to 50 nM. `CCc1nc(CN(C)C)nc(N2CCOc3ccc(-c4cnc5[nH]c(C)nc5c4)cc3C2)c1C` showed an IC50 of 10 to 50 nM. Work on `CCNc1nc2ccc(-c3ccc4c(c3)CN(c3ccncn3)CCO4)cc2[nH]1` yielded an IC50 of 250 to 1000 nM. In the case of `Cc1nc2cc(-c3ccc4c(c3)CN(c3nc(CO)nc(C)c3Cc3ccc(F)cc3)CCO4)ccc2[nH]1`, the IC50 is reported as ≤ 10 nM. With `COc1ccc2c(N3CCOc4ccc(-c5cnc6sc(N)nc6c5)cc4C3)nc(C)nc2c1` the IC50 was ≤ 10 nM. Molecule `CC1(C)CCc2ncnc(N3CCOc4ccc(-c5cnc(N)c(S(=O)(=O)NCC(O)C(F)(F)F)c5)cc4C3)c2C1` (configuration not stated) has an IC50 of 10 to 50 nM. With `CC1(C)CCc2ncnc(N3CCOc4ccc(-c5cnc(N)c(S(=O)(=O)N6CC7CNCC7C6)c5)cc4C3)c2C1` (configuration not stated) the IC50 was 50 to 250 nM. Work on `COCCOc1ccc2ncnc(N3CCOc4ccc(-c5ccc6nc(C)[nH]c6c5)cc4C3)c2c1` yielded an IC50 of 250 to 1000 nM. Work on `COCCOc1cc(-c2ccc3c(c2)CN(c2nc(CN(C)C)nc4c2CC(C)(C)CC4)CCO3)ccc1OC` yielded an IC50 of 50 to 250 nM. With `CC1(C)CCc2ncnc(N3CCOc4ccc(-c5cnc(N)c(S(=O)(=O)NCCO)c5)cc4C3)c2C1` the IC50 was ≤ 10 nM. For `COc1cc2nccc(N3CCOc4ccc(-c5ccc6nc(N)[nH]c6c5)cc4C3)c2cc1OC`, the IC50 was 10 to 50 nM. For `COc1ccc2c(N3CCOc4ccc(-c5cnc(N)c(S(=O)(=O)N6CC[C@H](N)C6)c5)cc4C3)ncnc2c1`, the IC50 was ≤ 10 nM. For `Cc1nc(CN(C)C)nc(N2CCOc3ccc(-c4cnc5sc(N)nc5c4)cc3C2)c1Cl`, the IC50 was 10 to 50 nM. Molecule `CC1(C)CCc2ncnc(N3CCOc4ccc(-c5cnc(N)c(S(=O)(=O)N6CCCC(N)C6)c5)cc4C3)c2C1` (configuration not stated) has an IC50 of 50 to 250 nM. With `CN(C)c1ncc(-c2ccc3c(c2)CN(c2ncnc4c2CC(C)(C)CC4)CCO3)cc1NS(C)(=O)=O` the IC50 was 10 to 50 nM. In the case of `CCc1c(C)nc(C)nc1N1CCOc2ccc(-c3cnc4nc(C)[nH]c4c3)cc2C1`, the IC50 is reported as 50 to 250 nM. `COc1cccc2c(N3CCOc4ccc(-c5ccc6nc(C)[nH]c6c5)cc4C3)ncnc12` showed an IC50 of 10 to 50 nM. `C[C@H]1CCc2c(ncnc2N2CCOc3ccc(-c4cnc5nc(C6CC6)[nH]c5c4)cc3C2)C1` was tested, and the IC50 was 10 to 50 nM. `CN(C)Cc1nc2c(c(N3CCOc4ccc(-c5cnc6nc(C7CC7)[nH]c6c5)cc4C3)n1)CC(C)(C)CC2` was tested, and the IC50 was ≤ 10 nM. For `COc1ccc2c(N3CCOc4ccc(-c5ccc6nc(C)[nH]c6c5)cc4C3)nc(C)nc2c1`, the IC50 was 10 to 50 nM. `Cc1nc2ncc(-c3ccc4c(c3)CN(c3nc(CN(C)C)nc5ccc(F)cc35)CCO4)cc2[nH]1` showed an IC50 of 10 to 50 nM. `Cc1ncnc(N2CCOc3ccc(-c4cnc5nc[nH]c5c4)cc3C2)c1Cc1ccc(F)cc1` showed an IC50 of 10 to 50 nM. With `Cc1nc2ncc(-c3ccc4c(c3)CN(c3nc(CN(C)C)nc(C)c3CC3CC3)CCO4)cc2[nH]1` the IC50 was ≤ 10 nM. Work on `CCS(=O)(=O)c1cc(-c2ccc3c(c2)CN(c2ncnc4c2CC(C)(C)CC4)CCO3)cnc1N` yielded an IC50 of 10 to 50 nM. Molecule `CC(C)Nc1nc2ccc(-c3ccc4c(c3)CN(c3ccnc5ccccc35)CCO4)cc2[nH]1` has an IC50 of 250 to 1000 nM. `CN(C)Cc1nc2c(c(N3CCOc4ccc(-c5cnc6sc(N)nc6c5)cc4C3)n1)CC(C)(C)CC2` was tested, and the IC50 was ≤ 10 nM. `CC1(C)CCc2ncnc(N3CCOc4ccc(-c5cnc(N)c(S(=O)(=O)N6CCOCC6)c5)cc4C3)c2C1` showed an IC50 of 50 to 250 nM. `COc1ccc(-c2ccc3c(c2)CN(c2nc(CN(C)C)nc4c2CC(C)(C)CC4)CCO3)cn1` showed an IC50 of 50 to 250 nM. For `CC1(C)CCc2ncnc(N3CCOc4ccc(-c5cnc(N)c(S(=O)(=O)NCCCO)c5)cc4C3)c2C1`, the IC50 was ≤ 10 nM. With `CNS(=O)(=O)c1cc(-c2ccc3c(c2)CN(c2ncnc4c2CC(C)(C)C=C4)CCO3)cnc1N` the IC50 was 10 to 50 nM. Molecule `Cc1ncnc(N2CCOc3ccc(-c4cnc(N)nc4)cc3C2)c1Cc1ccc(F)cc1` has an IC50 of 50 to 250 nM. With `CC1(C)CCc2ncnc(N3CCOc4ccc(-c5ccc(-c6ncc[nH]6)cc5)cc4C3)c2C1` the IC50 was 10 to 50 nM. `CCNc1nc2ccc(-c3ccc4c(c3)CN(c3ccnc5ccc(F)cc35)CCO4)cc2[nH]1` gave an IC50 of 10 to 50 nM. With `CCc1c(C(C)C)ncnc1N1CCOc2ccc(-c3ccc4nc(C)[nH]c4c3)cc2C1` the IC50 was 250 to 1000 nM. Work on `COC(=O)Nc1nc2ccc(-c3ccc4c(c3)CN(c3ncnc5ccc(OC)cc35)CCO4)cc2[nH]1` yielded an IC50 of 10 to 50 nM. For `Cc1ncnc(N2CCOc3ccc(-c4ccc5sc(N)nc5c4)cc3C2)c1Cc1ccc(F)cc1`, the IC50 was 50 to 250 nM. With `CC(C)(N)CNS(=O)(=O)c1cc(-c2ccc3c(c2)CN(c2ncnc4c2CC(C)(C)CC4)CCO3)cnc1N` the IC50 was 50 to 250 nM. `CCN(C)S(=O)(=O)c1cc(-c2ccc3c(c2)CN(c2ncnc4c2CC(C)(C)CC4)CCO3)cnc1N` showed an IC50 of 50 to 250 nM. For `CC[C@H](C)NCc1nc2c(c(N3CCOc4ccc(-c5cnc6nc(C)[nH]c6c5)cc4C3)n1)CC(C)(C)CC2`, the IC50 was 10 to 50 nM. In the case of `Cc1nc2ccc(-c3ccc4c(c3)CN(c3ccncn3)CCO4)cc2[nH]1`, the IC50 is reported as 250 to 1000 nM. With `COC(=O)Nc1nc2ncc(-c3ccc4c(c3)CN(c3nc(CN(C)C)nc5c3CC(C)(C)CC5)CCO4)cc2[nH]1` the IC50 was ≤ 10 nM. For `CC1(C)CCc2ncnc(N3CCOc4ccc(-c5cnc(N)c(S(=O)(=O)N6CC(O)C6)c5)cc4C3)c2C1`, the IC50 was ≤ 10 nM. `Cc1nc2ccc(-c3ccc4c(c3)CN(c3ncnc5c3CCC(C)(C)C5)CCO4)cc2[nH]1` was tested, and the IC50 was 50 to 250 nM. With `Cc1nc(CN(C)C)nc(N2CCOc3ccc(-c4cnc5sc(N)nc5c4)cc3C2)c1CC1CC1` the IC50 was ≤ 10 nM. `Cc1nc2ncc(-c3ccc4c(c3)CN(c3nc(CN(C)C5CC5)nc5c3CC(C)(C)CC5)CCO4)cc2[nH]1` was tested, and the IC50 was 50 to 250 nM. `CC1(C)CCc2ncnc(N3CCOc4ccc(-c5cnc(N)c(S(=O)(=O)NCC6CCCCN6)c5)cc4C3)c2C1` (configuration not stated) showed an IC50 of 50 to 250 nM. Molecule `Cc1nc2ccc(-c3ccc4c(c3)CN(c3ncnc5ccc(I)cc35)CCO4)cc2[nH]1` has an IC50 of 50 to 250 nM. With `CNC(=O)c1ccc(-c2ccc3c(c2)CN(c2ncnc(C)c2Cc2ccc(F)cc2)CCO3)nc1` the IC50 was 250 to 1000 nM. With `Cc1ncnc(N2CCOc3ccc(-c4ccc(-c5ncc[nH]5)cc4)cc3C2)c1Cc1ccc(F)cc1` the IC50 was ≤ 10 nM. `Cc1nc2ncc(-c3ccc4c(c3)CN(c3ncnc5c3CCC(C(F)(F)F)C5)CCO4)cc2[nH]1` (configuration not stated) gave an IC50 of 50 to 250 nM. Molecule `CC1(C)CCc2ncnc(N3CCOc4ccc(-c5cnc(N)c(S(=O)(=O)N6CC[C@@H](N)C6)c5)cc4C3)c2C1` has an IC50 of 10 to 50 nM. In the case of `Cc1nc2ncc(-c3ccc4c(c3)CN(c3nc(CNC5CC5)nc5c3CC(C)(C)CC5)CCO4)cc2[nH]1`, the IC50 is reported as 10 to 50 nM. With `COc1ccc2c(N3CCOc4ccc(-c5cnc6nc(C)[nH]c6c5)cc4C3)ncnc2c1` the IC50 was ≤ 10 nM. `c1ccc2c(N3CCOc4ccc(-c5ccc6nc(C7CC7)[nH]c6c5)cc4C3)ccnc2c1` was tested, and the IC50 was 10 to 50 nM. For `CN(C)Cc1nc2c(c(N3CCOc4ccc(-c5ccc(-c6ncc[nH]6)cc5)cc4C3)n1)CC(C)(C)CC2`, the IC50 was ≤ 10 nM. With `Cc1nc2ncc(-c3ccc4c(c3)CN(c3nc(CN(C)C)nc5c3CC(C)(C)CC5)CCO4)cc2[nH]1` the IC50 was ≤ 10 nM. With `CC1(C)CCc2ncnc(N3CCOc4ccc(-c5cnc(N)c(S(=O)(=O)N6CCNCC6)c5)cc4C3)c2C1` the IC50 was 50 to 250 nM. `Cc1nc(N2CCOc3ccc(-c4ccc5nc(C)[nH]c5c4)cc3C2)c2ccccc2n1` was tested, and the IC50 was 10 to 50 nM. Molecule `COc1ccc2c(N3CCOc4ccc(-c5ccc(-c6c[nH]cn6)cc5)cc4C3)nc(C)nc2c1` has an IC50 of 50 to 250 nM. Molecule `Cc1nc2ncc(-c3ccc4c(c3)CN(c3nc(CNC(C)C5CC5)nc5c3CC(C)(C)CC5)CCO4)cc2[nH]1` (configuration not stated) has an IC50 of 10 to 50 nM. For `COc1ccc2ncnc(N3CCOc4ccc(-c5cnc6nc(N)[nH]c6c5)cc4C3)c2c1`, the IC50 was ≤ 10 nM. For `CCN(C)Cc1nc2c(c(N3CCOc4ccc(-c5cnc6nc(C)[nH]c6c5)cc4C3)n1)CC(C)(C)CC2`, the IC50 was ≤ 10 nM. For `Cc1nc2ccc(-c3ccc4c(c3)CN(c3ncnc(C)c3Cc3ccccc3C)CCO4)cc2[nH]1`, the IC50 was 50 to 250 nM. Molecule `Cc1nc2ccc(-c3ccc4c(c3)CN(c3nc(CNC5CCC5)nc5c3CC(C)(C)CC5)CCO4)cc2[nH]1` has an IC50 of 10 to 50 nM. Work on `CC1(C)CCc2ncnc(N3CCOc4ccc(-c5cnc(N)c(S(C)(=O)=O)c5)cc4C3)c2C1` yielded an IC50 of 10 to 50 nM. Work on `CCNc1nc2ccc(-c3ccc4c(c3)CN(c3ncnc5c3CC(C)(C)CC5)CCO4)cc2[nH]1` yielded an IC50 of 10 to 50 nM. Molecule `CCC1CCc2ncnc(N3CCOc4ccc(-c5cnc6nc(C)[nH]c6c5)cc4C3)c2C1` (configuration not stated) has an IC50 of 10 to 50 nM. With `COc1ccc2c(N3CCOc4ccc(-c5cnc(N)c(S(=O)(=O)C[C@@H](C)CO)c5)cc4C3)ncnc2c1` the IC50 was ≤ 10 nM. With `COc1ccc2c(N3CCOc4ccc(-c5cnc6nc[nH]c6c5)cc4C3)nc(C)nc2c1` the IC50 was ≤ 10 nM. `COc1ccc2c(N3CCOc4ccc(-c5cnc6[nH]cnc6c5)cc4C3)nc(CN(C)C)nc2c1` was tested, and the IC50 was ≤ 10 nM. In the case of `CCNc1nc2ccc(-c3ccc4c(c3)CN(c3ncnc5cc(OC)c(OC)cc35)CCO4)cc2[nH]1`, the IC50 is reported as 10 to 50 nM. `CC(C)(O)CC[S+]([O-])c1cc(-c2ccc3c(c2)CN(c2ncnc4c2CC(C)(C)CC4)CCO3)cnc1N` (configuration not stated) was tested, and the IC50 was 50 to 250 nM. `COC(=O)Nc1nc2ccc(-c3ccc4c(c3)CN(c3ncnc5[nH]ccc35)CCO4)cc2[nH]1` gave an IC50 of 250 to 1000 nM. For `COC(=O)Nc1nc2ccc(-c3ccc4c(c3)CN(c3nc(C)nc5ccccc35)CCO4)cc2[nH]1`, the IC50 was 10 to 50 nM. `CC[C@H]1CCc2c(nc(C)nc2N2CCOc3ccc(-c4cnc5nc(NC(=O)OC)[nH]c5c4)cc3C2)C1` was tested, and the IC50 was ≤ 10 nM. `CCNc1nc2ccc(-c3ccc4c(c3)CN(c3ccnc5cc(OC)ccc35)CCO4)cc2[nH]1` was tested, and the IC50 was ≤ 10 nM. In the case of `COC(=O)Nc1nc2ncc(-c3ccc4c(c3)CN(c3ncnc5c3CC(C)(C)C=C5)CCO4)cc2[nH]1`, the IC50 is reported as ≤ 10 nM. `Cc1nc2ncc(-c3ccc4c(c3)CN(c3ncnc(C)c3C(C)C)CCO4)cc2[nH]1` gave an IC50 of 10 to 50 nM. For `C=Cc1nc2c(c(N3CCOc4ccc(-c5cnc6[nH]c(C)nc6c5)cc4C3)n1)CC(C)(C)CC2`, the IC50 was 50 to 250 nM. `Cc1nc2ccc(-c3ccc4c(c3)CN(c3ncnc5ccc(OCC#N)cc35)CCO4)cc2[nH]1` was tested, and the IC50 was 10 to 50 nM. For `Cc1nc2cc(-c3ccc4c(c3)CN(c3nc(CN(C)C)nc(C)c3Cl)CCO4)ccc2[nH]1`, the IC50 was 50 to 250 nM. `CSc1nc2c(c(N3CCOc4ccc(-c5ccc6nc(C)[nH]c6c5)cc4C3)n1)CCC2` gave an IC50 of 250 to 1000 nM. Molecule `CNc1ncnc(N2CCOc3ccc(-c4cnc5nc(C)[nH]c5c4)cc3C2)c1C` has an IC50 of 10 to 50 nM. Molecule `Cc1cccc(Cl)c1S(=O)(=O)Nc1cc(-c2ccc3c(c2)CN(c2ncnc4c2CC(C)(C)CC4)CCO3)cnc1Cl` has an IC50 of 50 to 250 nM.
